Results: patent publication US20230085307A1, “PYRIDAZINONE COMPOUND AND HERBICIDE” (NISSAN CHEMICAL CORPORATION, priority 2019, published 2023)

How the values were obtained:
[1] = tested on: Italian ryegrass; test: Test Example 5: herbicidal effect by foliage application, plastic box (Table 20, symbol K); format: in vivo, Italian ryegrass (Lolium multiflorum)
Procedure, shortened: (§1)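 Foliar spray test: emulsion formulation diluted in water to a set application rate, sprayed onto 14-day-old plants raised in diluvial soil at 25° C to 30° C under glass. Both herbicidal effect and crop effect rated visually three weeks later.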

[2] = tested on: green foxtail; test: Test Example 5: herbicidal effect by foliage application, plastic box (Table 20, symbol G); format: in vivo, green foxtail (Setaria viridis)
Procedure, shortened: as §1

[3] = tested on: persian speedwell; test: Test Example 4: herbicidal effect by soil treatment (Table 19, symbol R); format: in vivo, Persian speedwell (Veronica persica)
Excerpt: [Test Example 4] Herbicidal Effect Test by Soil Treatment
Sterilized diluvial soil was placed in a plastic box having a length of 21 cm, a width of 13 cm, and a depth of 7 cm. The seeds of each of southern crabgrass, green foxtail, barnyard grass, wild oat, blackgrass, Italian ryegrass, windgrass, velvetleaf, redroot pigweed, lambsquarters, chickweed, false cleavers, persian speedwell, corn, soybean, rice, wheat, beet, and rapeseed were sowed in a spot-like manner and covered with the soil having a thickness of about 1.5 cm. Subsequently, the emulsion agent of the compound of the present invention prepared according to Formulation Example 2 was diluted with water so as to achieve a predetermined herbicide amount, and the diluted emulsion agent was uniformly applied to the surface of the soil with a small-sized spray. The plastic box was placed in a greenhouse at 25° C. to 30° C. for growth of the plants. Three weeks after the herbicide application, the effect of the herbicide on each plant was evaluated according to the criteria of Test Example 1.

[4] = tested on: green foxtail; test: Test Example 4: herbicidal effect by soil treatment (Table 19, symbol G); format: in vivo, green foxtail (Setaria viridis)
Procedure, shortened: (§2)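 Herbicidal effect was rated 3 weeks after treatment, using the scoring criteria of an earlier test. The compound, formulated as an emulsion and diluted in water to a set herbicide amount, had been sprayed uniformly on soil over freshly sown seeds. Growth took place in a greenhouse at 25° C. to 30° C.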

[5] = tested on: barnyard grass; test: Test Example 4: herbicidal effect by soil treatment (Table 19, symbol H); format: in vivo, barnyard grass (Echinochloa crus-galli)
Procedure, shortened: as §2

[6] = tested on: wild oat; test: Test Example 5: herbicidal effect by foliage application, plastic box (Table 20, symbol I); format: in vivo, wild oat (Avena fatua)
Procedure, shortened: as §1

[7] = tested on: blackgrass; test: Test Example 5: herbicidal effect by foliage application, plastic box (Table 20, symbol J); format: in vivo, blackgrass (Alopecurus myosuroides)
Procedure, shortened: as §1

[8] = tested on: redroot pigweed; test: Test Example 5: herbicidal effect by foliage application, plastic box (Table 20, symbol N); format: in vivo, redroot pigweed (Amaranthus retroflexus)
Procedure, shortened: as §1

[9] = tested on: velvetleaf; test: Test Example 5: herbicidal effect by foliage application, plastic box (Table 20, symbol M); format: in vivo, velvetleaf (Abutilon theophrasti)
Procedure, shortened: as §1

[10] = tested on: chickweed; test: Test Example 4: herbicidal effect by soil treatment (Table 19, symbol P); format: in vivo, common chickweed (Stellaria media)
Procedure, shortened: as §2

[11] = tested on: rice flat sedge; test: Test Example 3: herbicidal effect by foliage application, Wagner pot (Table 18, symbol E); format: in vivo, rice flat sedge (Cyperus iria); conditions: 320 g/ha
Procedure, shortened: (§3)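 Plants were sown in alluvial soil held under 0.1–0.5 cm standing water and grown 14 days in a greenhouse at 25–30 °C. An emulsifiable formulation, water-diluted to the set dose, was then sprayed onto the foliage, and effects were scored three weeks later using previously defined criteria.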

[12] = tested on: blackgrass; test: Test Example 4: herbicidal effect by soil treatment (Table 19, symbol J); format: in vivo, blackgrass (Alopecurus myosuroides)
Procedure, shortened: as §2

[13] = tested on: southern crabgrass; test: Test Example 4: herbicidal effect by soil treatment (Table 19, symbol F); format: in vivo, southern crabgrass (Digitaria ciliaris)
Procedure, shortened: as §2

[14] = tested on: southern crabgrass; test: Test Example 5: herbicidal effect by foliage application, plastic box (Table 20, symbol F); format: in vivo, southern crabgrass (Digitaria ciliaris)
Procedure, shortened: as §1

[15] = tested on: chickweed; test: Test Example 5: herbicidal effect by foliage application, plastic box (Table 20, symbol P); format: in vivo, common chickweed (Stellaria media)
Procedure, shortened: as §1

[16] = tested on: barnyard grass; test: Test Example 3: herbicidal effect by foliage application, Wagner pot (Table 18, symbol H); format: in vivo, barnyard grass (Echinochloa crus-galli); conditions: 320 g/ha
Procedure, shortened: as §3

[17] = tested on: wild oat; test: Test Example 4: herbicidal effect by soil treatment (Table 19, symbol I); format: in vivo, wild oat (Avena fatua)
Procedure, shortened: as §2

[18] = tested on: redroot pigweed; test: Test Example 4: herbicidal effect by soil treatment (Table 19, symbol N); format: in vivo, redroot pigweed (Amaranthus retroflexus)
Procedure, shortened: as §2

[19] = tested on: Italian ryegrass; test: Test Example 4: herbicidal effect by soil treatment (Table 19, symbol K); format: in vivo, Italian ryegrass (Lolium multiflorum)
Procedure, shortened: as §2

[20] = tested on: lambsquarters; test: Test Example 5: herbicidal effect by foliage application, plastic box (Table 20, symbol O); format: in vivo, lambsquarters (Chenopodium album)
Procedure, shortened: as §1

[21] = tested on: persian speedwell; test: Test Example 5: herbicidal effect by foliage application, plastic box (Table 20, symbol R); format: in vivo, Persian speedwell (Veronica persica)
Procedure, shortened: as §1

[22] = tested on: lambsquarters; test: Test Example 4: herbicidal effect by soil treatment (Table 19, symbol O); format: in vivo, lambsquarters (Chenopodium album)
Procedure, shortened: as §2

[23] = tested on: barnyard grass; test: Test Example 5: herbicidal effect by foliage application, plastic box (Table 20, symbol H); format: in vivo, barnyard grass (Echinochloa crus-galli)
Procedure, shortened: as §1

[24] = tested on: windgrass; test: Test Example 5: herbicidal effect by foliage application, plastic box (Table 20, symbol L); format: in vivo, windgrass (Apera spica-venti)
Procedure, shortened: as §1

[25] = tested on: Chinese sprangletop; test: Test Example 3: herbicidal effect by foliage application, Wagner pot (Table 18, symbol D); format: in vivo, chinese sprangletop (Leptochloa chinensis); conditions: 320 g/ha
Procedure, shortened: as §3

[26] = tested on: velvetleaf; test: Test Example 4: herbicidal effect by soil treatment (Table 19, symbol M); format: in vivo, velvetleaf (Abutilon theophrasti)
Procedure, shortened: as §2

[27] = foliage application, AAH 320 g/ha, three weeks after application
[28] = 320 g/ha, foliage application after 14-day growth, evaluated three weeks after application
[29] = amount of applied herbicide 320 g/ha

COc1ccc(Cl)cc1-c1sc2ccccc2c1-c1c(O)c(OC)nn(C)c1=O [1-178]
K: Italian ryegrass, herbicidal effect [1, 27]: 0 (Herbicidal rate of 5% or less (almost no effect))
G: green foxtail, herbicidal effect [2, 27]: 4 (Herbicidal rate of 70% or more and less than 90%)
R: persian speedwell, herbicidal effect rating ([3]; AAH 320 g/ha): 4 (Herbicidal rate of 70% or more and less than 90%)
G: green foxtail, herbicidal effect rating ([4]; AAH 320 g/ha): 0 (Herbicidal rate of 5% or less (almost no effect))
H: barnyard grass, herbicidal effect rating ([5]; AAH 320 g/ha): 0 (Herbicidal rate of 5% or less (almost no effect))
I: wild oat, herbicidal effect [6, 27]: 4 (Herbicidal rate of 70% or more and less than 90%)
J: blackgrass, herbicidal effect [7, 27]: 1 (Herbicidal rate of 5% or more and less than 20%)
N: redroot pigweed, herbicidal effect [8, 27]: 5 (Herbicidal rate of 90% or more (almost completely withered))
M: velvetleaf, herbicidal effect [9, 27]: 3 (Herbicidal rate of 40% or more and less than 70%)
P: chickweed, herbicidal effect rating ([10]; AAH 320 g/ha): 4 (Herbicidal rate of 70% or more and less than 90%)
herbicidal effect on E (rice flat sedge), rating 0-5 [11]: 5 (Herbicidal rate of 90% or more (almost completely withered))
J: blackgrass, herbicidal effect rating ([12]; AAH 320 g/ha): 1 (Herbicidal rate of 5% or more and less than 20%)
F: southern crabgrass, herbicidal effect rating ([13]; AAH 320 g/ha): 0 (Herbicidal rate of 5% or less (almost no effect))
F: southern crabgrass, herbicidal effect [14, 27]: 3 (Herbicidal rate of 40% or more and less than 70%)
P: chickweed, herbicidal effect [15, 27]: 5 (Herbicidal rate of 90% or more (almost completely withered))
herbicidal effect on H (barnyard grass), rating 0-5 [16]: 4 (Herbicidal rate of 70% or more and less than 90%)
I: wild oat, herbicidal effect rating ([17]; AAH 320 g/ha): 0 (Herbicidal rate of 5% or less (almost no effect))
N: redroot pigweed, herbicidal effect rating ([18]; AAH 320 g/ha): 4 (Herbicidal rate of 70% or more and less than 90%)
K: Italian ryegrass, herbicidal effect rating ([19]; AAH 320 g/ha): 0 (Herbicidal rate of 5% or less (almost no effect))
O: lambsquarters, herbicidal effect [20, 27]: 4 (Herbicidal rate of 70% or more and less than 90%)
R: persian speedwell, herbicidal effect [21, 27]: 4 (Herbicidal rate of 70% or more and less than 90%)
O: lambsquarters, herbicidal effect rating ([22]; AAH 320 g/ha): 0 (Herbicidal rate of 5% or less (almost no effect))
H: barnyard grass, herbicidal effect [23, 27]: 4 (Herbicidal rate of 70% or more and less than 90%)
L: windgrass, herbicidal effect [24, 27]: 4 (Herbicidal rate of 70% or more and less than 90%)
herbicidal effect on D (Chinese sprangletop), rating 0-5 [25]: 0 (Herbicidal rate of 5% or less (almost no effect))
M: velvetleaf, herbicidal effect rating ([26]; AAH 320 g/ha): 0 (Herbicidal rate of 5% or less (almost no effect))

Cc1nn(C)c(=O)c(-c2c(-c3ccc(C(F)(F)F)cc3)sc3c(F)cccc23)c1O [4-044]
herbicidal effect on K: Italian ryegrass (evaluation grade 0-5) [1, 28]: 4 (Herbicidal rate of 70% or more and less than 90%)
herbicidal effect on G: green foxtail (evaluation grade 0-5) [2, 28]: 1 (Herbicidal rate of 5% or more and less than 20%)
Herbicidal effect by soil treatment, R: persian speedwell [3, 29]: 3 (Herbicidal rate of 40% or more and less than 70%)
Herbicidal effect by soil treatment, G: green foxtail [4, 29]: 0 (Herbicidal rate of 5% or less (almost no effect))
Herbicidal effect by soil treatment, H: barnyard grass [5, 29]: 0 (Herbicidal rate of 5% or less (almost no effect))
herbicidal effect on I: wild oat (evaluation grade 0-5) [6, 28]: 0 (Herbicidal rate of 5% or less (almost no effect))
herbicidal effect on J: blackgrass (evaluation grade 0-5) [7, 28]: 0 (Herbicidal rate of 5% or less (almost no effect))
herbicidal effect on N: redroot pigweed (evaluation grade 0-5) [8, 28]: 4 (Herbicidal rate of 70% or more and less than 90%)
herbicidal effect on M: velvetleaf (evaluation grade 0-5) [9, 28]: 3 (Herbicidal rate of 40% or more and less than 70%)
Herbicidal effect by soil treatment, P: chickweed [10, 29]: 1 (Herbicidal rate of 5% or more and less than 20%)
herbicidal effect on rice flat sedge (E) [11]: 5 (Herbicidal rate of 90% or more (almost completely withered))
Herbicidal effect by soil treatment, J: blackgrass [12, 29]: 0 (Herbicidal rate of 5% or less (almost no effect))
Herbicidal effect by soil treatment, F: southern crabgrass [13, 29]: 0 (Herbicidal rate of 5% or less (almost no effect))
herbicidal effect on F: southern crabgrass (evaluation grade 0-5) [14, 28]: 0 (Herbicidal rate of 5% or less (almost no effect))
herbicidal effect on P: chickweed (evaluation grade 0-5) [15, 28]: 5 (Herbicidal rate of 90% or more (almost completely withered))
herbicidal effect on barnyard grass (H) [16]: 5 (Herbicidal rate of 90% or more (almost completely withered))
Herbicidal effect by soil treatment, I: wild oat [17, 29]: 0 (Herbicidal rate of 5% or less (almost no effect))
Herbicidal effect by soil treatment, N: redroot pigweed [18, 29]: 0 (Herbicidal rate of 5% or less (almost no effect))
Herbicidal effect by soil treatment, K: Italian ryegrass [19, 29]: 0 (Herbicidal rate of 5% or less (almost no effect))
herbicidal effect on O: lambsquarters (evaluation grade 0-5) [20, 28]: 3 (Herbicidal rate of 40% or more and less than 70%)
herbicidal effect on R: persian speedwell (evaluation grade 0-5) [21, 28]: 5 (Herbicidal rate of 90% or more (almost completely withered))
Herbicidal effect by soil treatment, O: lambsquarters [22, 29]: 0 (Herbicidal rate of 5% or less (almost no effect))
herbicidal effect on H: barnyard grass (evaluation grade 0-5) [23, 28]: 2 (Herbicidal rate of 20% or more and less than 40%)
herbicidal effect on L: windgrass (evaluation grade 0-5) [24, 28]: 5 (Herbicidal rate of 90% or more (almost completely withered))
herbicidal effect on Chinese sprangletop (D) [25]: 5 (Herbicidal rate of 90% or more (almost completely withered))
Herbicidal effect by soil treatment, M: velvetleaf [26, 29]: 0 (Herbicidal rate of 5% or less (almost no effect))
